Experimental data: PubChem BioAssay AID330 (DTP/NCI, 2004)
Values joined by “and” are separate entries in the source; they are usually repeats but may differ in a detail not shown here. Equal values may be shown once. Toxic doses and inconclusive results are not listed.

Tested on: P388 leukemia ip, CD2F1 mice, survival T/C
Assay: NCI In Vivo Anticancer Drug Screen. Data for tumor model P388 Leukemia (intraperitoneal) in CD2F1 (CDF1) mice
Details: endpoint: median survival time, higher = longer survival
Method in brief: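 Mice carrying the transplanted tumor received test compound or vehicle. Survival was recorded in each group, and the value is the treated-group measurement divided by that of the vehicle-treated control group.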

[1] = dose: 50.0 mg/kg/injection, schedule: Q01DX005 (ip), vehicle: saline with Tween-80
[2] = dose: 100.0 mg/kg/injection, schedule: Q01DX005 (ip), vehicle: saline with Tween-80
[3] = dose: 200.0 mg/kg/injection, schedule: Q01DX005 (ip), vehicle: saline with Tween-80
[4] = dose: 50.0 mg/kg/injection, schedule: Q01DX005 (ip), vehicle: Klucel (hydroxypropylcellulose) (HPC)
[5] = dose: 100.0 mg/kg/injection, schedule: Q01DX005 (ip), vehicle: Klucel (hydroxypropylcellulose) (HPC)
[6] = dose: 200.0 mg/kg/injection, schedule: Q01DX005 (ip), vehicle: Klucel (hydroxypropylcellulose) (HPC)
[7] = dose: 12.5 mg/kg/injection, schedule: Q01DX005 (ip), vehicle: saline
[8] = dose: 50.0 mg/kg/injection, schedule: Q01DX009 (ip), vehicle: Klucel (hydroxypropylcellulose) (HPC)
[9] = dose: 100.0 mg/kg/injection, schedule: Q01DX009 (ip), vehicle: Klucel (hydroxypropylcellulose) (HPC)
[10] = dose: 200.0 mg/kg/injection, schedule: Q01DX009 (ip), vehicle: Klucel (hydroxypropylcellulose) (HPC)
[11] = dose: 100.0 mg/kg/injection, schedule: Q01DX001 (ip), vehicle: saline with Tween-80
[12] = dose: 200.0 mg/kg/injection, schedule: Q01DX001 (ip), vehicle: saline with Tween-80
[13] = dose: 400.0 mg/kg/injection, schedule: Q01DX001 (ip), vehicle: saline with Tween-80
[14] = dose: 60.0 mg/kg/injection, schedule: Q01DX005 (ip), vehicle: saline
[15] = dose: 120.0 mg/kg/injection, schedule: Q01DX005 (ip), vehicle: saline
[16] = dose: 240.0 mg/kg/injection, schedule: Q01DX005 (ip), vehicle: saline
[17] = dose: 100.0 mg/kg/injection, schedule: Q04DX003 (ip), vehicle: saline with Tween-80
[18] = dose: 200.0 mg/kg/injection, schedule: Q04DX003 (ip), vehicle: saline with Tween-80

O=C(O)/C(Br)=C(/Br)C(=O)O
T/C (dose: 100.0 mg/kg/injection, schedule: Q04DX002 (ip), vehicle: saline with Tween-80): 106 % of control | T/C (dose: 200.0 mg/kg/injection, schedule: Q04DX002 (ip), vehicle: saline with Tween-80): 100 % of control

O=c1cc(O)c1=O
T/C (dose: 0.78 mg/kg/injection, schedule: Q01DX009 (ip), vehicle: saline): 96 % of control | T/C (dose: 1.56 mg/kg/injection, schedule: Q01DX009 (ip), vehicle: saline): 109 % of control | T/C (dose: 3.13 mg/kg/injection, schedule: Q01DX009 (ip), vehicle: saline): 91 % of control | T/C (dose: 6.25 mg/kg/injection, schedule: Q01DX009 (ip), vehicle: saline): 98 % of control

Oc1c(Cl)c(Cl)c2ncccc2c1Cl
T/C [1]: 102 % of control | T/C [2]: 107 % of control | T/C [3]: 110 % of control

CC(=O)OCC12C(OC(C)=O)C(=O)C3C(OC(C)=O)C14OC3(C)COC(=O)c1cccnc1C(C)C(C)C(=O)OC(C(OC(C)=O)C2OC(C)=O)C4(C)O (stereo not given)
T/C (dose: 3.0 mg/kg/injection, schedule: Q01DX009 (ip), vehicle: Klucel (hydroxypropylcellulose) (HPC)): 104 % of control | T/C (dose: 6.0 mg/kg/injection, schedule: Q01DX009 (ip), vehicle: Klucel (hydroxypropylcellulose) (HPC)): 93 % of control | T/C (dose: 12.0 mg/kg/injection, schedule: Q01DX009 (ip), vehicle: Klucel (hydroxypropylcellulose) (HPC)): 96 % of control | T/C (dose: 24.0 mg/kg/injection, schedule: Q01DX009 (ip), vehicle: Klucel (hydroxypropylcellulose) (HPC)): 96 % of control

CC1=CC(=C2C(=O)c3ccccc3C2=O)C=C(C)N1CC#CCN1CCCCC1
T/C [4]: 108 % of control | T/C [5]: 98 % of control | T/C [6]: 88 % of control | T/C (dose: 240.0 mg/kg/injection, schedule: Q01DX005 (ip), vehicle: Klucel (hydroxypropylcellulose) (HPC)): 90 % of control

C=C(C)C(=O)OC1CCC2(C)C(CCC3C2CCC2(C)C(c4ccc(=O)oc4)CCC32O)C1 (stereo not given)
T/C (dose: 12.5 mg/kg/injection, schedule: Q01DX009 (ip), vehicle: saline): 86 % of control | T/C (dose: 25.0 mg/kg/injection, schedule: Q01DX009 (ip), vehicle: saline): 98 % of control | T/C (dose: 50.0 mg/kg/injection, schedule: Q01DX009 (ip), vehicle: saline): 101 % of control and 94 % of control | T/C (dose: 200.0 mg/kg/injection, schedule: Q01DX009 (ip), vehicle: saline): 95 % of control

CCOc1c(C)cc(Cc2ccc3c(c2)OCO3)cc1C
T/C [1]: 108 % of control | T/C [2]: 101 % of control | T/C [3]: 92 % of control

COC1C(/C=C/C(=O)CCl)OC2OC(C)(C)OC21 (stereo not given)
T/C (dose: 3.12 mg/kg/injection, schedule: Q01DX005 (ip), vehicle: saline): 108 % of control | T/C (dose: 6.25 mg/kg/injection, schedule: Q01DX005 (ip), vehicle: saline): 108 % of control | T/C [7]: 105 % of control

N#C/C(=N\N=C(/C#N)c1ccc(Cl)cc1)c1ccc(Cl)cc1
T/C [1]: 97 % of control | T/C [2]: 94 % of control | T/C [3]: 88 % of control

COc1ccc2c(c1OC)C[N+]1(C)CCc3cc4c(cc3C1=C2C)OCO4 (stereo not given)
T/C (dose: 1.56 mg/kg/injection, schedule: Q01DX005 (ip), vehicle: Klucel (hydroxypropylcellulose) (HPC)): 99 % of control | T/C (dose: 3.12 mg/kg/injection, schedule: Q01DX005 (ip), vehicle: Klucel (hydroxypropylcellulose) (HPC)): 99 % of control | T/C (dose: 6.25 mg/kg/injection, schedule: Q01DX005 (ip), vehicle: Klucel (hydroxypropylcellulose) (HPC)): 103 % of control and 113 % of control

CN(C)NC(=S)SCCC(=O)O
T/C [8]: 99 % of control | T/C [9]: 96 % of control | T/C [10]: 92 % of control

CCC(c1ccc(OC)cc1)C(NCC(=O)N/N=C1\C[C@@H]2[C@H](CC[C@]3(C)[C@@H](O)CC[C@@H]23)c2c(C)cc(O)cc21)c1ccc(OC)cc1 (stereo not given in full)
T/C [11]: 106 % of control | T/C [12]: 107 % of control | T/C [13]: 101 % of control

C1Cc2[nH]nc(-c3n[nH]c4c3CCC4)c2C1
T/C [14]: 97 % of control | T/C [15]: 97 % of control | T/C [16]: 97 % of control

CSC(=Nc1cccnc1)NC#N
T/C [8]: 96 % of control | T/C [9]: 93 % of control | T/C [10]: 92 % of control

CSCSCC(CO)NC(=O)/C=C/c1c(C)[nH]c(=O)[nH]c1=O (stereo not given)
T/C (dose: 0.08 mg/kg/injection, schedule: Q01DX009 (ip), vehicle: water): 105 % of control | T/C (dose: 0.15 mg/kg/injection, schedule: Q01DX009 (ip), vehicle: water): 107 % of control | T/C (dose: 0.3 mg/kg/injection, schedule: Q01DX009 (ip), vehicle: water): 102 % of control | T/C (dose: 0.6 mg/kg/injection, schedule: Q01DX009 (ip), vehicle: water): 101 % of control | T/C (dose: 1.2 mg/kg/injection, schedule: Q01DX009 (ip), vehicle: water): 109 % of control | T/C (dose: 50.0 mg/kg/injection, schedule: Q01DX009 (ip), vehicle: other): 87 % of control | T/C (dose: 100.0 mg/kg/injection, schedule: Q01DX009 (ip), vehicle: other): 98 % of control | T/C (dose: 200.0 mg/kg/injection, schedule: Q01DX009 (ip), vehicle: other): 89 % of control | T/C (dose: 400.0 mg/kg/injection, schedule: Q01DX009 (ip), vehicle: other): 86 % of control

O=C1CCC/C1=C1/SS/C(=C2/CCCC2=O)S1
T/C [8]: 101 % of control | T/C [9]: 102 % of control | T/C [10]: 98 % of control

O=S1(F)=NP(N2CC2)(N2CC2)=NP(N2CC2)(N2CC2)=N1 (stereo not given)
T/C (dose: 5.0 mg/kg/injection, schedule: Q04DX003 (ip), vehicle: saline): 86 % of control | T/C (dose: 10.0 mg/kg/injection, schedule: Q04DX003 (ip), vehicle: saline): 102 % of control | T/C (dose: 20.0 mg/kg/injection, schedule: Q04DX003 (ip), vehicle: saline): 86 % of control | T/C (dose: 40.0 mg/kg/injection, schedule: Q04DX003 (ip), vehicle: saline): 234 % of control

CC(C)(C)OC(=O)NC(Cc1cnc[nH]1)C(=O)O (stereo not given)
T/C [4]: 90 % of control | T/C [5]: 99 % of control | T/C [6]: 98 % of control

CC(=O)N1NC(=O)c2c(c3ccccc3n2C)C1c1ccc(C)cc1 (stereo not given)
T/C (dose: 100.0 mg/kg/injection, schedule: Q01DX001 (ip), vehicle: Klucel (hydroxypropylcellulose) (HPC)): 100 % of control | T/C (dose: 200.0 mg/kg/injection, schedule: Q01DX001 (ip), vehicle: Klucel (hydroxypropylcellulose) (HPC)): 110 % of control | T/C (dose: 400.0 mg/kg/injection, schedule: Q01DX001 (ip), vehicle: Klucel (hydroxypropylcellulose) (HPC)): 110 % of control

CC(C)(C)c1ccc(C(=O)NCSCC(NC(=O)CCC(N)C(=O)O)C(=O)NCC(=O)O)cc1 (stereo not given)
T/C (dose: 60.0 mg/kg/injection, schedule: Q01DX005 (ip), vehicle: saline with Tween-80): 98 % of control | T/C (dose: 120.0 mg/kg/injection, schedule: Q01DX005 (ip), vehicle: saline with Tween-80): 104 % of control | T/C (dose: 240.0 mg/kg/injection, schedule: Q01DX005 (ip), vehicle: saline with Tween-80): 86 % of control

COc1cc(NCC(O)CN2C(C)CCCC2C)c2ncccc2c1 (stereo not given)
T/C (dose: 6.0 mg/kg/injection, schedule: Q01DX005 (ip), vehicle: saline): 98 % of control | T/C [7]: 100 % of control

S=c1[nH]c2cc(Cl)ccc2s1
T/C (dose: 100.0 mg/kg/injection, schedule: Q01DX009 (ip), vehicle: saline with Tween-80): 109 % of control | T/C [17]: 100 % of control | T/C [18]: 104 % of control | T/C (dose: 400.0 mg/kg/injection, schedule: Q04DX003 (ip), vehicle: saline with Tween-80): 109 % of control

C[N+](C)(C)NP(=O)(N[N+](C)(C)C)c1ccccc1
T/C [14]: 100 % of control | T/C [15]: 106 % of control | T/C [16]: 100 % of control

C=C1C=C(C)C(=O)O1
T/C [11]: 99 % of control | T/C [12]: 103 % of control | T/C [13]: 105 % of control

c1ccc2c(c1)nc1snc(-n3ccnc3)n12
T/C (dose: 50.0 mg/kg/injection, schedule: Q04DX003 (ip), vehicle: saline with Tween-80): 103 % of control | T/C [17]: 111 % of control | T/C [18]: 90 % of control
